Here are results for 52 compounds from patent publication US20230357139A1, “SMALL MOLECULE INHIBITORS OF BACTERIAL TOXINS” (Artizan Biosciences, Inc., priority 2020, published 2023).

Gelatinase E (GelE), sequence (Q833V7 193-510 limits assumed): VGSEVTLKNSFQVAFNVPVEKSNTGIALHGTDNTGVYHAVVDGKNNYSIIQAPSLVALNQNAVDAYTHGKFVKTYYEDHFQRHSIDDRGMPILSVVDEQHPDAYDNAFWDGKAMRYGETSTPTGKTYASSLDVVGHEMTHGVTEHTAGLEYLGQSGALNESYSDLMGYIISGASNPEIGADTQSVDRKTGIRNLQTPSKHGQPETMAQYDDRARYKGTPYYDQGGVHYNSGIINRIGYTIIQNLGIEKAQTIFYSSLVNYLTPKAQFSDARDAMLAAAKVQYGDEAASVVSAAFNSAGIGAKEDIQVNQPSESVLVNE

In one test the test system is recombinant BFT (rBFT). As to the kind of experiment: NFF-3 cleavage assay. In kind it is biochemical, B. fragilis. The settings on record: rBFT pre-incubated with compound 30 minutes at 37° C., then NFF-3 for 24 hours; read-out: NFF3 IC50. On the procedure: A NFF-3 cleavage assay was used to test activity of recombinant BFT, before or after addition of various inhibitors. The NFF-3 cleavage assay was previously described by Goulas et al., PNAS, 2011, 108(5) 1856-1861, which is incorporated by reference herein in its entirety.
Initially, recombinant BFT (rBFT) (0.25, 0.5, 1, 2, 4, 8, or 16 μg/mL) was incubated at 37° C. with the fluorogenic substrate NFF-3 (Cayman Chemical) at a concentration of 2.5 μM, 5 μM, or 10 μM. After 18 hours, fluorescence was measured in a microplate fluorimeter.
Next, rBFT was pre-incubated with one or more test compounds at different concentrations for 30 minutes at 37° C. The rBFT-compound mixture was then added to NFF-3 and incubated for 24 hours at 37° C. Fluorescence was then measured in a microplate fluorimeter.
For orientation: IC50 means the midpoint of a concentration-inhibition curve. `O=C(NO)[C@@H](Cc1cccs1)N(Cc1ccc(Cl)cc1)S(=O)(=O)c1ccc(O)cc1` [Example 80]: the 50% inhibitory concentration (IC50) was 0.29 µM.

Take `COC[C@H](C(=O)NO)N(Cc1cccnc1)S(=O)(=O)c1ccc(O)cc1` [Example 53]: the IC50 amounted to 0.57 µM.

On to `O=C(NO)[C@@H](Cc1cccs1)N(Cc1cccc(Cl)c1)S(=O)(=O)c1ccc(O)cc1` [Example 83], for which the IC50 was found to be 0.53 µM.

As for `Cc1ccc(CN([C@H](Cc2cccs2)C(=O)NO)S(=O)(=O)c2ccc(O)cc2)cc1` [Example 90], the IC50 was 0.236 µM.

`CCC(C)[C@H](C(=O)NO)N(Cc1cccnc1)S(=O)(=O)c1ccc(O)cc1` (stereo partly shown) [Example 36]: the concentration for half-maximal inhibition (IC50) came to 0.24 µM.

Consider `CC(C)C[C@H](C(=O)NO)N(Cc1cccnc1)S(=O)(=O)c1ccc(C(=N)N)cc1` [Example 52], for which the IC50 stood at 27.9 µM.

On to `CC[C@H](C(=O)NO)N(Cc1cccnc1)S(=O)(=O)c1ccc(O)c(F)c1` [Example 58], for which the IC50 came to 0.51 µM.

Consider `O=C(NO)[C@@H](CO)N(Cc1cccnc1)S(=O)(=O)c1ccc(O)cc1` [Example 50], for which the half-inhibitory concentration (IC50) came out at 0.51 µM.

As to `COc1ccc(S(=O)(=O)N(Cc2cccnc2)CC(O)CSC(C)=O)cc1` (stereo not shown) [Example 75], the half-maximal inhibitory concentration (IC50) was greater than 100 µM.

With `COc1ccc(S(=O)(=O)N(Cc2ccccc2)[C@H](C(=O)NO)C(C)C)cc1F` [Example 65], the half-maximal inhibitory concentration (IC50) came out at 28.5 µM.

As to `CC(C)[C@@H](C(=O)NO)N(Cc1ccccc1)S(=O)(=O)c1cccc(C(F)(F)F)c1` [Example 69], the IC50 is 691 µM.

As to `CC(C)C[C@H](C(=O)NO)N(Cc1cccnc1)S(=O)(=O)c1ccc(C(C)O)cc1` (stereo partly shown) [Example 37], the concentration for half-maximal inhibition (IC50) turned out to be 49.7 µM.

In the case of `CC[C@H](C(=O)NO)N(Cc1cccnc1)S(=O)(=O)CCNC(=O)CSC` [Example 70], the IC50 was 164 µM.

Take `CC(C)C[C@H](C(=O)NO)N(Cc1cccnc1)S(=O)(=O)c1cccc(C(N)=O)c1` [Example 39]: the half-inhibitory concentration (IC50) stood at 79.3 µM.

Take `CC(C)C[C@H](C(=O)NN)N(Cc1cccnc1)S(=O)(=O)c1ccc(O)cc1` [Example 34]: the IC50 came out at 28 µM.

Consider `CC(C)C[C@H](C(=O)NO)N(Cc1cccnc1)S(=O)(=O)c1ccc(NS(C)(=O)=O)cc1` [Example 41, (R)—N-hydroxy-4-methyl-2-((4-(methylsulfonamido)-N-(pyridin-3-ylmethyl)phenyl)sulfonamido) pentanamide], for which the half-maximal inhibitory concentration (IC50) is 24.1 µM.

For `CC(C)[C@H](C(=O)NO)N(Cc1cccnc1)S(=O)(=O)c1ccsc1` [Example 76], the half-maximal inhibitory concentration (IC50) was determined as 9.93 µM.

With `CC(C)C[C@H](C(=O)NO)N(Cc1cccnc1)S(=O)(=O)c1ccc(N)cc1` [Example 43], the IC50 worked out at 2.99 µM.

As for `Cc1cccc(CN([C@H](Cc2cccs2)C(=O)NO)S(=O)(=O)c2ccc(O)cc2)c1` [Example 84], the IC50 turned out to be 0.491 µM.

As to `O=C(NO)[C@@H](Cc1cccs1)N(Cc1ccc(OC(F)F)cc1)S(=O)(=O)c1ccc(O)cc1` [Example 98], the IC50 was found to be 1.4 µM.

As for `CC(C)C[C@H](C(=O)NO)N(Cc1cccnc1)S(=O)(=O)c1ccc(C(N)=O)cc1` [Example 46], the half-inhibitory concentration (IC50) turned out to be 6.1 µM.

For `CC[C@H](C(=O)NO)N(Cc1cccnc1)S(=O)(=O)c1ccc(O)c(Cl)c1` [Example 59], the half-maximal inhibitory concentration (IC50) was found to be 4.22 µM.

On to `O=C(NO)[C@@H](Cc1cccs1)N(Cc1ccc(OC(F)(F)F)cc1)S(=O)(=O)c1ccc(O)cc1` [Example 77], for which the IC50 turned out to be 0.15 µM.

Take `CC(C)C[C@H](C(=O)NO)N(Cc1cccnc1)S(=O)(=O)c1ccc(C#N)cc1` [Example 47]: the 50% inhibitory concentration (IC50) amounted to 6.09 µM.

Take `COc1ccc(C(C(=O)NO)N(Cc2ccc3[nH]ccc3c2)S(=O)(=O)c2ccc(O)cc2)cc1` (stereo not shown) [Example 93]: the IC50 turned out to be 0.117 µM.

Regarding `COCC[C@H](C(=O)NO)N(Cc1cccnc1)S(=O)(=O)c1ccc(O)cc1` [Example 54], the half-maximal inhibitory concentration (IC50) came to 0.4 µM.

Consider `COc1cccc(CN([C@H](Cc2cccs2)C(=O)NO)S(=O)(=O)c2ccc(O)cc2)c1` [Example 89], for which the IC50 came out at 0.185 µM.

Consider `O=C(NO)[C@@H](Cc1cocn1)N(Cc1cccnc1)S(=O)(=O)c1ccc(O)cc1` [Example 67], for which the IC50 turned out to be 4.25 µM.

As to `CC[C@H](C(=O)NO)N(Cc1cccnc1)S(=O)(=O)c1ccc(O)cc1F` [Example 57], the IC50 amounted to 0.196 µM.

Consider `CC(C)C[C@H](C(=O)NO)N(Cc1cccnc1)S(=O)(=O)c1ccc(-c2nnn[nH]2)cc1` [Example 51], for which the IC50 was greater than 200 µM.

As for `CCOc1ccc(CN([C@H](Cc2cccs2)C(=O)NO)S(=O)(=O)c2ccc(O)cc2)cc1` [Example 81], the IC50 was 0.556 µM.

In the case of `CC(=O)c1ccc(S(=O)(=O)N(Cc2cccnc2)[C@H](CC(C)C)C(=O)NO)cc1` [Example 38], the half-inhibitory concentration (IC50) turned out to be 6.13 µM.

Regarding `CCC[C@H](C(=O)NO)N(CCc1ccc2[nH]ccc2c1)S(=O)(=O)c1ccc(O)cc1` [Example 112], the 50% inhibitory concentration (IC50) is greater than 10 µM.

As for `CSCC[C@H](C(=O)NO)N(CCc1ccccc1)S(=O)(=O)c1ccc(O)cc1` [Example 92], the half-inhibitory concentration (IC50) was 0.099 µM.

On to `O=C(NO)[C@@H](CC(F)F)N(Cc1cccnc1)S(=O)(=O)c1ccc(O)cc1` [Example 48], for which the IC50 was determined as 14.6 µM.

As to `CC(C)[C@@H](C(=O)NO)N(Cc1ccccc1)S(=O)(=O)c1ccc(O)c(F)c1` [Example 68], the concentration for half-maximal inhibition (IC50) is 50.1 µM.

Consider `CCCC[C@H](C(=O)NO)N(Cc1cccnc1)S(=O)(=O)c1ccc(O)cc1` [Example 44], for which the half-maximal inhibitory concentration (IC50) was 0.13 µM.

Take `CC(C)CN(CC(=O)NO)S(=O)(=O)c1ccc(O)cc1` [Example 56]: the half-maximal inhibitory concentration (IC50) stood at 4.62 µM.

Turning to `C[C@H](C(=O)NO)N(CCc1ccccc1)S(=O)(=O)c1ccc(O)cc1` [Example 105], the IC50 was determined as 0.09 µM.

In the case of `COc1ccc(S(=O)(=O)N(Cc2cccnc2)[C@H](C(=O)NO)C(C)C)cc1` [Example 64], the 50% inhibitory concentration (IC50) amounted to 8.28 µM.

With `CCC[C@@H](C(=O)NO)N(CCc1ccccn1)S(=O)(=O)c1ccc(O)cc1` [Example 78], the half-inhibitory concentration (IC50) was found to be 0.216 µM.

`O=C(NO)[C@@H](Cc1cccs1)N(Cc1ccc(OCCF)cc1)S(=O)(=O)c1ccc(O)cc1` [Example 100]: the IC50 was found to be 0.15 µM.

Consider `CC(C)[C@@H](C(=O)NO)N(Cc1ccccc1)S(=O)(=O)c1c(F)c(F)c(F)c(F)c1F` [Example 72], for which the 50% inhibitory concentration (IC50) was found to be 637 µM.

As for `CC(C)C[C@H](C(=O)NO)N(Cc1cccnc1)S(=O)(=O)c1ccc(NC=O)cc1` [Example 49, (R)-2-((4-formamido-N-(pyridin-3-ylmethyl)phenyl)-sulfonamido)-N-hydroxy-4-methyl pentanamide], the 50% inhibitory concentration (IC50) was determined as 8.2 µM.

A further test addresses Gelatinase E (GelE) (Enterococcus faecalis (strain ATCC 700802 / V583), UniProt Q833V7). As to the kind of experiment: Gelatinase E activity assay (FRET peptide substrate). In kind it is biochemical. The following applies: Table 11. On the procedure:
Gelatinase E (Gel E) was purified from bacterial culture supernatant from E. faecalis. E. faecalis was cultured aerobically in Todd Hewitt Broth overnight at 37° C. Nucleic acid was precipitated with 0.9% protamine solution, followed by protein precipitation with ammonium sulfate. Resuspended protein pellet was further subjected to purification using FPLC (phenyl Sepharose column). Fractions with gelatinase activity as determined by casein agar assay were pooled and further concentrated.
Different concentrations of test compound were incubated with purified GelE and FRET-based peptide substrate (390 MMP FRET Substrate 1; Anaspec AS-27077) in assay buffer at room temperature for 30 minutes. The fluorescence signal was determined by a plate reader.
On to `COc1ccc(S(=O)(=O)N(CC(=O)NO)Cc2ccccc2)cc1` [S], for which the half-maximal inhibitory concentration (IC50) stood at 0.205 µM.

`CC(C)CN(CC(=O)NO)S(=O)(=O)c1ccc(OCC(F)F)cc1` [X] displayed an IC50 of 0.18 µM.

Regarding `CC(C)CN(CC(=O)NO)S(=O)(=O)c1ccc(OCC(=O)NCc2ccc(F)cc2)cc1` [AJ], it took 0.313 µM to reach half-maximal inhibition (IC50).

As to `COc1ccc(-n2ccc(CCC(=O)NO)n2)cc1` [V], the IC50 was 12.7 µM.

Consider `C=CCOc1ccc(S(=O)(=O)N(CC(=O)NO)CC(C)C)cc1` [R], for which the IC50 was found to be 2.42 µM.

As for `Cc1cccc(CNC(=O)COc2ccc(S(=O)(=O)N(CC(=O)NO)CC(C)C)cc2)c1` [AK], the IC50 was greater than 10 µM.

Turning to `CC(C)CN(CC(=O)NO)S(=O)(=O)c1ccc(OCC(=O)NCc2cccc(C(F)(F)F)c2)cc1` [AF], the 50% inhibitory concentration (IC50) was 0.113 µM.

With `CSc1cccc(CNC(=O)COc2ccc(S(=O)(=O)N(CC(=O)NO)CC(C)C)cc2)c1` [AQ], the IC50 is 0.119 µM.
